The source of these data is patent publication EP0277849A1, “Incorporation of one or more lipophilic, active principles into lipoproteins, lipoproteins obtained and pharmaceutical compositions containing them” (IRE-CELLTARG S.A., priority 1987, dated 1988).

Where two headings read alike, the source gives them in different places.

One data set relates to C. tropicalis. The data set is described as follows: Extracellular infection in the infected-macrophage model. In kind it is cell-based. The following applies: Candida tropicalis, read-out: CIext50^(a). Here is the method:
(§1) La lignée continue de macrophages J77468 d'origine murine provient d'un clonage de la souche J774 ATCC, et est cultivée en milieu RPMI 1640 additionné de glutamine 2 mM, 10% de sérum de veau foetal (décomplémenté 60 min. à 56°) et de 10 mM Hepes (pH 7.2). Une suspension de 5 10^6 cellules/ml sont infectées avec une culture de Candida tropicalis (5 10^5 levures/ml) provenant d'une culture de nuit dans de la casitone. Le milieu d'infection utilisé est du RPMI contenant 2 % de sérum de veau nouveau-né et 10 mM Hepes (pH 7.2).
(§2) Après 3 h d'incubation à 37° dans un mélange d'air 10 % C02, la phagocytose des levures est complète. La suspension cellulaire macrophages-Candida est centrifugée, lavée abondamment et répartie à raison de 10^5 macrophages infectés/alvéole dans des boîtes à 24 alvéoles contenant une lamelle de verre (diamètre 14 mm). Après 3 h de phagocytose (To), sur 100 macrophages, 32 contiennent de 1 à 6 Candida/macrophage, l'infection moyenne étant de 2 Candida/macrophage.
(§3) Toutes les levures ont été phagocytées sauf rares exceptions (estimation au microscope optique après coloration au May-Grünwald Giemsa). Douze concentrations différentes des drogues de référence et des drogues encapsulées dans les LDL sont distribuées dans les boîtes contenant les macrophages infectés.
(§4) L'évaluation de l'efficacité d'une drogue se fait à chaque concentration. Testées après 18 h d'incubation (37°, dans un mélange air-10 % C02), les levures se multiplient d'abord au sein des cellules hôtes, puis dans le milieu extracellulaire. Le taux de macrophages infectés est alors de 75 % chez les témoins. Une cellule peut contenir de 1 à plus de 20 Candida/cellule, la majorité contient de 2 à 6 levures/cellule. Le milieu de culture contient 10^8 Candida extracellulaires/ml (comptage dans une cellule de Burker).
L'action des AF encapsulés sur une infection extracellulaire peut être évaluée de deux manières : d'une part en déterminant le nombre de Candida extracellulaires dans un modèle d'infection intracellulaire (voir VIII § 1.1.), d'autre part en mesurant la concentration minimale inhibitrice (CMI) de ces composés par la méthode de dilutions successives dans des boîtes à multipuits (milieu RPMI).

The nature of data set [1]: Stability of reconstituted LDL in presence of plasma (KBr gradient fractionation). In kind it is in vitro ADME. The following applies: 1 ml de plasma humain, trois heures à 37° C. The protocol: Dans un milieu biologique aussi complexe que le plasma, de nombreux constituants peuvent, à priori, inte) ragir avec les LDL rec. CT040013 et provoquer leur déstabilisation ou entraîner une libération du principe actif incorporé. Aussi, une première étude a été entreprise pour essayerde caractériser le comportement des LDL rec. CT040013 lorsque ces dernières sont mises en présence de plasma.
Deux préparations ont été testées : les LDL rec. O.CHOL [^14C] et les LDL rec" CT040013. 500 µl de ces différentes préparations sont incubées avec 1 ml de plasma humain pendant trois heures à 37° C. Au terme de cette incubation, les échantillons sont fractionnés par ultracentrifugation sur gradient discontinu en KBr. Par aspiration, on récupère les fractions correspondantes aux différentes densités, et sur chacune de celle-ci, le cholestérol, les phospholipides, l'oléate de cholestérol [^14C] sont dosés (figure 15). Le profil en cholestérol total et en phospholipides est identique dans les deux gradients. On y distingue trois pics correspondants aux trois classes de lipoprotéines, par ordre décroissant de densité : HDL, LDL, et VLDL.

The subject of the next data set is Candida tropicalis. The data set can be described thus: Intracellular infection model: J77468 macrophages infected with Candida tropicalis. Type of data set: cell-based. The following applies: 2 % de sérum de veau foetal. Here is the method:
as §1, §2, §3, §4
L'activité d'une drogue encapsulée ou non dans les LDL ou Ac-LDL par rapport à un antifongique de référence, le kétoconazole (K), est déterminé par la concentration micromolaire en drogue réduisant de 50 % le nombre de macrophages infectés par les Candida (=C150). Signalons que parallèlement à la réduction au cours du traitement, du taux de cellules infectées, le nombre de Candida par macrophage infecté diminue fortement (de 1 à 3 levures/cellule).
Le milieu de culture est RPMI + glutamine 2 mM + Hepes 10 mM + 2 % de sérum de veau foetal.

`CCCCCCCC/C=C\CCCCCCCC(=O)N1CCN(c2ccc(OC[C@H]3CO[C@](Cn4ccnc4)(c4ccc(Cl)cc4Cl)O3)cc2)CC1` [KO1]: the IC50 with C. tropicalis (addition de 2 % Pl.H. (plasma humain)) amounted to 50.1 µM; in the data set with C. tropicalis (addition de 2 % SVF (sérum de veau foetal)), 8.31 µM; in the data set with Candida tropicalis (Candida tropicalis, Macrophage, micromolar concentration reducing infected macrophages by 50 %, 18 h, read-out: CI50 (the source's name)), 85.3 µM. Besides, the “association à l'albumine” value in data set [1] is recorded as “il n'a pas été possible de mettre en évidence une association”. In addition, the “relarguage / redistribution de la molécule incorporée en présence de plasma” value in data set [1] was “n'est pas pris en charge par ces protéines de transfert”. For the same compound, the “CI50 K/AF” value in the data set on Candida tropicalis is on record as 0,6.
